Conditions: 323.14 K, Liquid, Vibrating tube method

CCCCCCCCCC [decane]
Conditions | mass density [kg/m3]
21395 kPa | 724.8
21420 kPa | 724.9
21444 kPa | 724.9
21473 kPa | 724.8
21501 kPa | 724.8
21526 kPa | 725
21647 kPa | 725
22710 kPa | 725.7
22733 kPa | 725.8
22768 kPa | 725.8
22800 kPa | 725.9
22832 kPa | 725.9
22860 kPa | 725.9
22884 kPa | 725.9
22916 kPa | 725.8
22948 kPa | 726
22977 kPa | 726.1
23013 kPa | 726
23034 kPa | 726.1
23071 kPa | 726.1
23103 kPa | 726.1
23124 kPa | 726.1
23149 kPa | 726.2
23170 kPa | 726.2
23191 kPa | 726.2
23219 kPa | 726.2
23256 kPa | 726.1
23294 kPa | 726.2
23332 kPa | 726.3
23357 kPa | 726.2
23391 kPa | 726.2
23412 kPa | 726.2
23442 kPa | 726.3
23475 kPa | 726.4
23509 kPa | 726.3
23539 kPa | 726.3
23578 kPa | 726.5
23612 kPa | 726.3
23710 kPa | 726.6
23736 kPa | 726.5
23762 kPa | 726.5
23806 kPa | 726.6
23832 kPa | 726.7
23854 kPa | 726.6
23881 kPa | 726.6
23912 kPa | 726.7
23938 kPa | 726.7
23970 kPa | 726.7
23996 kPa | 726.7
24633 kPa | 727.3
24707 kPa | 727.3
24732 kPa | 727.3
24765 kPa | 727.4
24799 kPa | 727.2
24832 kPa | 727.4
24861 kPa | 727.4
24899 kPa | 727.4
24942 kPa | 727.4
24979 kPa | 727.4
25000 kPa | 727.5
25022 kPa | 727.4
25061 kPa | 727.6
25103 kPa | 727.6
25129 kPa | 727.5
25160 kPa | 727.6
25190 kPa | 727.7
25216 kPa | 727.6
25251 kPa | 727.7
25291 kPa | 727.6
25325 kPa | 727.7
25361 kPa | 727.8
25383 kPa | 727.8
25422 kPa | 727.7
25458 kPa | 727.8
25493 kPa | 727.9
25521 kPa | 727.8
25556 kPa | 727.8
25593 kPa | 727.9
25624 kPa | 727.9
25670 kPa | 727.9
25706 kPa | 728
25742 kPa | 727.9
25783 kPa | 728
25828 kPa | 728
26192 kPa | 728.4
26343 kPa | 728.4
26723 kPa | 728.6
26758 kPa | 728.8
26793 kPa | 728.7
26842 kPa | 728.8
26872 kPa | 728.8
26912 kPa | 728.8
26952 kPa | 728.8
26992 kPa | 728.9
27043 kPa | 729
27362 kPa | 729.1
27409 kPa | 729.2
27440 kPa | 729.2
27472 kPa | 729.2
27524 kPa | 729.4
27568 kPa | 729.3
27605 kPa | 729.3
27657 kPa | 729.4
27684 kPa | 729.3
27758 kPa | 729.5
27796 kPa | 729.5
27882 kPa | 729.5
27920 kPa | 729.5
27958 kPa | 729.5
27997 kPa | 729.6
28042 kPa | 729.7
28096 kPa | 729.7
28135 kPa | 729.7
28185 kPa | 729.7
28230 kPa | 729.8
28317 kPa | 729.9
28358 kPa | 729.8
28393 kPa | 729.7
28457 kPa | 730.1
28496 kPa | 730
28541 kPa | 730
28571 kPa | 730.1
28605 kPa | 730
28640 kPa | 730.1
28675 kPa | 730.1
28714 kPa | 730.1
28744 kPa | 730.2
28779 kPa | 730.1
28819 kPa | 730.2
28844 kPa | 730.2
28887 kPa | 730.3
28913 kPa | 730.3
28938 kPa | 730.2
28968 kPa | 730.3
28999 kPa | 730.4
29030 kPa | 730.4
29065 kPa | 730.4
